Bridge positions count the residues as written; N and C are the ends. Square brackets hold non-standard residues; d marks the D form. Peptide text beside a SMILES is read from it. * marks the point of attachment. ξ: configuration not given here. Phe(4-COOH) = N[C@@H](Cc1ccc(C(=O)O)cc1)C(=O)O; Bip = N[C@@H](Cc1ccc(-c2ccccc2)cc1)C(=O)O; hArg = N=C(N)NCCCC[C@H](N)C(=O)O; hCit = NC(=O)NCCCC[C@H](N)C(=O)O; 4Pal = N[C@@H](Cc1ccncc1)C(=O)O; 3Thi = N[C@@H](Cc1ccsc1)C(=O)O; Cha = N[C@@H](CC1CCCCC1)C(=O)O; Thr(3ξ) = CC(O)[C@H](N)C(=O)O; 12Ado = NCCCCCCCCCCCC(=O)O; Carboxymethyl = O=C(O)C*; Orn = NCCC[C@H](N)C(=O)O; Aun = NCCCCCCCCCCC(=O)O; Dab = NCC[C@H](N)C(=O)O; Dap = NC[C@H](N)C(=O)O; AEEA = NCCOCCOCC(=O)O
Biological target: T1, PD-1/PD-L1 interaction (PE-labeled human PD-L1-Ig binding to Jurkat cell line over-expressing human PD-1) (Homo sapiens, UniProt Q15116)
T1 construct: expressed in transfected cells; host or cells: Jurkat
Assay: Jurkat-PD-1 Cell Binding High-Content Screening Assay (CBA)
Assay type: cell-based
Details: Jurkat cell line over-expressing human PD-1; PE-labeled PD-L1-Ig 20 nM final; read-out: Jurkat hPD1-PDL1 IC50
Outline: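 Binding of fluorescent PD-L1-Ig (phycoerythrin on Ig tag, 20 nM final, 1 h) measured by high-content imaging of fixed, Hoechst-counterstained Jurkat-hPD-1 cells. Compound added 2 h at 37° C beforehand, in DMEM with 10% fetal calf serum.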

T1 sequence (Q15116 25-288): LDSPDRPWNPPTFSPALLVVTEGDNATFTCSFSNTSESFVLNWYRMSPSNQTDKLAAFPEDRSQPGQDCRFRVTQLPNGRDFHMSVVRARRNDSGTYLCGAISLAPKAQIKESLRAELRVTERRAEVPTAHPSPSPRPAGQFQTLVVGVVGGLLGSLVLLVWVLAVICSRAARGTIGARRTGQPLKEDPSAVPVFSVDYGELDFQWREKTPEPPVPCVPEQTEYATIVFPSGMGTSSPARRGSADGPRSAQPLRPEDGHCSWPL

IC50 [nM] | Compound
59 | CC(C)C[C@H]1NC(=O)[C@H](CCCCN)NC(=O)[C@H](C(C)C)NC(=O)[C@H](Cc2ccc(-c3ccccc3)cc2)NC(=O)[C@H](C(C)C)NC(=O)[C@H](Cc2c[nH]c3ccccc23)NC(=O)[C@H](CC(=O)O)NC(=O)[C@H](Cc2ccc(OCC(=O)O)cc2)NC(=O)[C@H](Cc2ccsc2)NC(=O)CSC[C@@H](C(=O)NCCOCCOCC(=O)N[C@@H](CCCN)C(=O)NCCCCCCCCCCC(=O)O)NC(=O)[C@H](C(C)O)NC(=O)[C@H](C(C)C)NC(=O)[C@H](CC2CCCCC2)NC(=O)[C@H](CCN)NC1=O (stereo partly drawn) [Compound 3167] ({CH2CO}-[3Thi]Y(Carboxymethyl)DWV[Bip]VK[dL][Dab][Cha]V[Thr(3ξ)]C[AEEA][Orn][Aun]-OH; thioether N-14)
73.6 | CC(C)C[C@H]1NC(=O)[C@H](CCCN)NC(=O)[C@H](C(C)C)NC(=O)[C@H](Cc2ccc(-c3ccccc3)cc2)NC(=O)[C@H](C(C)C)NC(=O)[C@H](Cc2c[nH]c3ccccc23)NC(=O)[C@H](CC(=O)O)NC(=O)[C@H](Cc2ccc(OCC(=O)O)cc2)NC(=O)[C@H](Cc2ccsc2)NC(=O)CSC[C@@H](C(=O)N[C@@H](CCCN)C(=O)NCCOCCOCC(=O)NCCCCCCCCCCCC(=O)O)NC(=O)[C@H](C(C)O)NC(=O)[C@H](C(C)C)NC(=O)[C@H](CC2CCCCC2)NC(=O)[C@H](CCN)NC1=O (stereo partly drawn) [Compound 3168] ({CH2CO}-[3Thi]Y(Carboxymethyl)DWV[Bip]V[Orn][dL][Dab][Cha]V[Thr(3ξ)]C[Orn][AEEA][12Ado]-OH; thioether N-14)
20.8 | CC(C)C[C@H]1NC(=O)[C@H](CCCN)NC(=O)[C@H](C(C)C)NC(=O)[C@H](Cc2ccc(-c3ccccc3)cc2)NC(=O)[C@H](C(C)C)NC(=O)[C@H](Cc2c[nH]c3ccccc23)NC(=O)[C@H](CC(=O)O)NC(=O)[C@H](CCCCNC(N)=O)NC(=O)[C@H](Cc2ccc(OCC(=O)O)cc2)NC(=O)CSC[C@@H](C(=O)NCC(=O)NCCOCCOCC(=O)N[C@@H](CCCN)C(=O)NCCCCCCCCCCCC(=O)O)NC(=O)[C@H](CN)NC(=O)[C@H](C(C)C)NC(=O)[C@H](CC2CCCCC2)NC(=O)[C@H](CCN)NC1=O [Compound 3169] ({CH2CO}-Y(Carboxymethyl)[hCit]DWV[Bip]V[Orn][dL][Dab][Cha]V[Dap]CG[AEEA][Orn][12Ado]-OH; thioether N-14)
17.5 | CC(C)C[C@H]1NC(=O)[C@H](CCCN)NC(=O)[C@H](C(C)C)NC(=O)[C@H](Cc2ccc(-c3ccccc3)cc2)NC(=O)[C@H](C(C)C)NC(=O)[C@H](Cc2c[nH]c3ccccc23)NC(=O)[C@H](CC(=O)O)NC(=O)[C@H](Cc2ccncc2)NC(=O)[C@H](Cc2ccc(OCC(=O)O)cc2)NC(=O)CSC[C@@H](C(=O)NCC(=O)NCCOCCOCC(=O)N[C@@H](CCCN)C(=O)NCCCCCCCCCCCC(=O)O)NC(=O)[C@H](CN)NC(=O)[C@H](C(C)C)NC(=O)[C@H](CC2CCCCC2)NC(=O)[C@H](CCN)NC1=O [Compound 3170] ({CH2CO}-Y(Carboxymethyl)[4Pal]DWV[Bip]V[Orn][dL][Dab][Cha]V[Dap]CG[AEEA][Orn][12Ado]-OH; thioether N-14)
6.1 | CC(C)C[C@H]1NC(=O)[C@H](CCCN)NC(=O)[C@H](C(C)C)NC(=O)[C@H](Cc2ccc(-c3ccccc3)cc2)NC(=O)[C@H](C(C)C)NC(=O)[C@H](Cc2c[nH]c3ccccc23)NC(=O)[C@H](CC(=O)O)NC(=O)[C@H](Cc2ccc(C(=O)O)cc2)NC(=O)[C@H](Cc2ccc(OCC(=O)O)cc2)NC(=O)CSC[C@@H](C(=O)NCC(=O)NCCOCCOCC(=O)N[C@@H](CCCN)C(=O)NCCCCCCCCCCCC(=O)O)NC(=O)[C@H](CN)NC(=O)[C@H](C(C)C)NC(=O)[C@H](CC2CCCCC2)NC(=O)[C@H](CCN)NC1=O [Compound 3171] ({CH2CO}-Y(Carboxymethyl)[Phe(4-COOH)]DWV[Bip]V[Orn][dL][Dab][Cha]V[Dap]CG[AEEA][Orn][12Ado]-OH; thioether N-14)
10.7 | CC(C)C[C@H]1NC(=O)[C@H](CCCN)NC(=O)[C@H](C(C)C)NC(=O)[C@H](Cc2ccc(-c3ccccc3)cc2)NC(=O)[C@H](C(C)C)NC(=O)[C@H](Cc2c[nH]c3ccccc23)NC(=O)[C@H](CC(=O)O)NC(=O)[C@H](Cc2ccc(OCC(=O)O)cc2)NC(=O)[C@H](CCCNC(=N)N)NC(=O)CSC[C@@H](C(=O)NCC(=O)NCCOCCOCC(=O)N[C@@H](CCCN)C(=O)NCCCCCCCCCCCC(=O)O)NC(=O)[C@H](CN)NC(=O)[C@H](C(C)C)NC(=O)[C@H](CC2CCCCC2)NC(=O)[C@H](CCN)NC1=O [Compound 3172] ({CH2CO}-RY(Carboxymethyl)DWV[Bip]V[Orn][dL][Dab][Cha]V[Dap]CG[AEEA][Orn][12Ado]-OH; thioether N-14)
21.2 | CC(C)C[C@H]1NC(=O)[C@H](CCCN)NC(=O)[C@H](C(C)C)NC(=O)[C@H](Cc2ccc(-c3ccccc3)cc2)NC(=O)[C@H](C(C)C)NC(=O)[C@H](Cc2c[nH]c3ccccc23)NC(=O)[C@H](CC(=O)O)NC(=O)[C@H](Cc2ccc(OCC(=O)O)cc2)NC(=O)[C@H](CCCCNC(=N)N)NC(=O)CSC[C@@H](C(=O)NCC(=O)NCCOCCOCC(=O)N[C@@H](CCCN)C(=O)NCCCCCCCCCCCC(=O)O)NC(=O)[C@H](CN)NC(=O)[C@H](C(C)C)NC(=O)[C@H](CC2CCCCC2)NC(=O)[C@H](CCN)NC1=O [Compound 3173] ({CH2CO}-[hArg]Y(Carboxymethyl)DWV[Bip]V[Orn][dL][Dab][Cha]V[Dap]CG[AEEA][Orn][12Ado]-OH; thioether N-14)
17.7 | CC(C)C[C@H]1NC(=O)[C@H](CCCN)NC(=O)[C@H](C(C)C)NC(=O)[C@H](Cc2ccc(-c3ccccc3)cc2)NC(=O)[C@H](C(C)C)NC(=O)[C@H](Cc2c[nH]c3ccccc23)NC(=O)[C@H](CC(=O)O)NC(=O)[C@H](Cc2ccc(OCC(=O)O)cc2)NC(=O)[C@H](CCCCNC(=N)N)NC(=O)CSC[C@@H](C(=O)NCC(=O)N[C@@H](CCCN)C(=O)NCCCCCCCCCCCC(=O)O)NC(=O)[C@H](CN)NC(=O)[C@H](C(C)C)NC(=O)[C@H](CC2CCCCC2)NC(=O)[C@H](CCN)NC1=O [Compound 3175] ({CH2CO}-[hArg]Y(Carboxymethyl)DWV[Bip]V[Orn][dL][Dab][Cha]V[Dap]CG[Orn][12Ado]-OH; thioether N-14)
33.4 | CC(C)C[C@H]1NC(=O)[C@H](CCCN)NC(=O)[C@H](C(C)C)NC(=O)[C@H](Cc2ccc(-c3ccccc3)cc2)NC(=O)[C@H](C(C)C)NC(=O)[C@H](Cc2c[nH]c3ccccc23)NC(=O)[C@H](CC(=O)O)NC(=O)[C@H](Cc2ccc(OCC(=O)O)cc2)NC(=O)[C@H](CCCCNC(=N)N)NC(=O)CSC[C@@H](C(=O)NCC(=O)N[C@@H](CCCN)C(=O)NCCCCCCCCCCCC(=O)O)NC(=O)[C@H](CN)NC(=O)[C@H](C(C)C)NC(=O)[C@H](CC2CCCCC2)NC(=O)[C@H](CC(N)=O)NC1=O [Compound 3176] ({CH2CO}-[hArg]Y(Carboxymethyl)DWV[Bip]V[Orn][dL]N[Cha]V[Dap]CG[Orn][12Ado]-OH; thioether N-14)
27.3 | CC(C)C[C@H]1NC(=O)[C@H](CCCN)NC(=O)[C@H](C(C)C)NC(=O)[C@H](Cc2ccc(-c3ccccc3)cc2)NC(=O)[C@H](C(C)C)NC(=O)[C@H](Cc2c[nH]c3ccccc23)NC(=O)[C@H](CC(=O)O)NC(=O)[C@H](Cc2ccc(OCC(=O)O)cc2)NC(=O)[C@H](CCCCNC(=N)N)NC(=O)CSC[C@@H](C(=O)N[C@@H](CCN)C(=O)NCCOCCOCC(=O)N[C@@H](CCCN)C(=O)NCCCCCCCCCCCC(=O)O)NC(=O)[C@H](CO)NC(=O)[C@H](C(C)C)NC(=O)[C@H](CC2CCCCC2)NC(=O)[C@H](CC(N)=O)NC1=O [Compound 3177] ({CH2CO}-[hArg]Y(Carboxymethyl)DWV[Bip]V[Orn][dL]N[Cha]VSC[Dab][AEEA][Orn][12Ado]-OH; thioether N-14)
14.8 | CC(C)C[C@H]1NC(=O)[C@H](CCCN)NC(=O)[C@H](C(C)C)NC(=O)[C@H](Cc2ccc(-c3ccccc3)cc2)NC(=O)[C@H](C(C)C)NC(=O)[C@H](Cc2c[nH]c3ccccc23)NC(=O)[C@H](CC(=O)O)NC(=O)[C@H](Cc2ccc(OCC(=O)O)cc2)NC(=O)[C@H](CCCCNC(=N)N)NC(=O)CSC[C@@H](C(=O)N[C@@H](CCCN)C(=O)NCCOCCOCC(=O)N[C@@H](CCCN)C(=O)NCCCCCCCCCCC(=O)O)NC(=O)[C@H](CO)NC(=O)[C@H](C(C)C)NC(=O)[C@H](CC2CCCCC2)NC(=O)[C@H](CC(N)=O)NC1=O [Compound 3178] ({CH2CO}-[hArg]Y(Carboxymethyl)DWV[Bip]V[Orn][dL]N[Cha]VSC[Orn][AEEA][Orn][Aun]-OH; thioether N-14)
16.1 | CC(C)C[C@H]1NC(=O)[C@H](CCCN)NC(=O)[C@H](C(C)C)NC(=O)[C@H](Cc2ccc(-c3ccccc3)cc2)NC(=O)[C@H](C(C)C)NC(=O)[C@H](Cc2c[nH]c3ccccc23)NC(=O)[C@H](CC(=O)O)NC(=O)[C@H](Cc2ccc(OCC(=O)O)cc2)NC(=O)[C@H](Cc2ccc(OCC(=O)O)cc2)NC(=O)CSC[C@@H](C(=O)NCC(=O)NCCOCCOCC(=O)N[C@@H](CCCN)C(=O)NCCCCCCCCCCCC(=O)O)NC(=O)[C@H](CO)NC(=O)[C@H](C(C)C)NC(=O)[C@H](CC2CCCCC2)NC(=O)[C@H](CCN)NC1=O [Compound 3179] ({CH2CO}-Y(Carboxymethyl)Y(Carboxymethyl)DWV[Bip]V[Orn][dL][Dab][Cha]VSCG[AEEA][Orn][12Ado]-OH; thioether N-14)
16.8 | CC(C)C[C@H]1NC(=O)[C@H](CCCN)NC(=O)[C@H](C(C)C)NC(=O)[C@H](Cc2ccc(-c3ccccc3)cc2)NC(=O)[C@H](C(C)C)NC(=O)[C@H](Cc2c[nH]c3ccccc23)NC(=O)[C@H](CC(=O)O)NC(=O)[C@H](Cc2ccc(C(=O)O)cc2)NC(=O)[C@H](Cc2ccc(OCC(=O)O)cc2)NC(=O)CSC[C@@H](C(=O)NCC(=O)NCCOCCOCC(=O)N[C@@H](CCCN)C(=O)NCCCCCCCCCCCC(=O)O)NC(=O)[C@H](CO)NC(=O)[C@H](C(C)C)NC(=O)[C@H](CC2CCCCC2)NC(=O)[C@H](CCN)NC1=O [Compound 3180] ({CH2CO}-Y(Carboxymethyl)[Phe(4-COOH)]DWV[Bip]V[Orn][dL][Dab][Cha]VSCG[AEEA][Orn][12Ado]-OH; thioether N-14)
